What was measured:
[1] = C18-TLC assay (hydrophobicity); format: physicochemical; conditions: for RM0 (TLC hydrophobicity index, intercept of linear equation): RP-18 TLC, PBS pH 7.4/methanol, extrapolated to zero organic modifier
Excerpt: In TLC measurements RF value depends on the chemical structure of analyte and its interaction with stationary and mobile phase. […] As it was expected, with increase in the percentage of organic modifier in the mobile phase the increase in RF values can be seen with accompanied decrease in RM values expressed as RM = log(1/RF - 1). Measured RF values were in the range from 0.1 to 0.7 obtained in a wide range of mobile phase organic modifier concentrations. […] Increasing concentration of the organic modifier in the mobile phase caused a slower decrease in the RM values for less hydrophobic analytes than for more hydrophobic ones. […] Increase in the hydrophobicity within curcuminoids and andrographolides is related to increase in lipophilicity determined by shake-flask method (Table 3). Stock solutions of analytes and calibration standards were prepared by dissolving 10 mg of each solute in 10 mL of methanol and kept at 4 °C. Working solutions were freshly prepared at the beginning of each day by dilution of the stock solutions to 100 μg/mL with methanol for TLC measurements or mobile phase for HPLC measurements. Before use, the samples were sonicated (Elmasonic […]) for 10 min at 25 °C and all working solutions were filtered through 0.2 μm polyethersulfone filters (Obrnuta faza). To protect analytes from photodegradation, the amber glass HPLC vials were used. Analyses were carried out using a commercially available 10 cm x 20 cm RP-18 TLC plates with fluorescent indicator (Merck KGaA). 5 μL of each working solution ([…]) was applied to the plates as 5 mm bends, 10 mm from the lower edge and 15 mm from sides of plates. The mobile phases were prepared by mixing the respective amounts of PBS (20 mM, pH 7.4) and methanol from 50% to 80% of organic solvent in 5% increment. The vertical flat-bottom chamber ([…], Switzerland) with a stainless-steel lid was saturated with mobile phase for 30 min. The plates were developed to a distance of 9 cm at room temperature, dried in the open air for 5 min and visualized under λ = 254 nm UV light (UV Cabinet with Dual Wavelength UV lamp by Camag).

[2] = C18-HPLC assay (hydrophobicity); format: physicochemical; conditions: for logk0 (HPLC hydrophobicity index, intercept of linear equation): Zorbax SB C18, PBS pH 7.4/methanol, extrapolated to zero organic modifier
Method: The principles of hydrophobicity determination by HPLC are characterized by the logarithm of retention factor (k), defined as logk = log (tR−t0)/t0, where tR is retention time of analyte and t0 is the dead time. […] The percentage of methanol in the mobile phase was optimized so that the analytes had retention time between dead time and a maximum of 20 min keeping the analysis time as short as possible, and the peak shape acceptable (peak asymmetry factor were between 0.8 and 1.2). […] The HPLC hydrophobicity index, logk0, was determined by extrapolation of the organic modifier in the mobile phase to its zero concentration.
(§1) Stock solutions of analytes and calibration standards were prepared by dissolving 10 mg of each solute in 10 mL of methanol and kept at 4 °C. Working solutions were freshly prepared at the beginning of each day by dilution of the stock solutions to 100 μg/mL with methanol for TLC measurements or mobile phase for HPLC measurements. Before use, the samples were sonicated (Elmasonic XtraTT, Elma Schmidbauer) for 10 min at 25 °C and all working solutions were filtered through 0.2 µm polyethersulfone filters (Obrnuta faza). To protect analytes from photodegradation, the amber glass HPLC vials were used.
(§2) C18-HPLC assay was carried out at Agilent HPLC 1100 and Zorbax SB C18 chromatographic column (length 250 mm.6 mm, particle size 5 µm) by Agilent Technologies, while IAM-HPLC assay was conducted using IAM P.C.DD2 chromatographic column (length 50 mm, i.d. 3.0 mm, particle size […]) by Regis Technologies (Morton Grove, IL, USA). Retention data were collected at 25.0 ± 0.1 °C using isocratic method working with mobile phases, mixing the respective amounts of PBS (10 mM, pH 7.4) and methanol from 35% to 80% of organic solvent in 5% increment. Each mobile phase was shaken vigorously and filtrated through membrane filter, no. 66, diameter 47 mm, pore size 0.45 µm by Supelco and degassed by sonication 5 min before use. The injection volume was set at 10 µL, and the measurements were carried out at flow rate 1.0 mL/min. Natrium nitrate solution (0.1 mg/mL in mobile phase) was used as the marker of dead-time. The absorbance of the analytes during a chromatographic run was collected in the spectral range of 200–400 nm, and the detection wavelength for each analyte was the one providing the maximum peak height.

[3] = IAM-HPLC assay (lipophilicity, affinity to phospholipids); format: physicochemical; conditions: for logk0 IAM (HPLC lipophilicity index, intercept of linear equation): IAM P.C.DD2 column, PBS pH 7.4/methanol, extrapolated to zero organic modifier
Method: IAM columns provide potential to simulate membrane permeability since the amphiphilic character of phospholipid functional groups plays an important role in IAM retention especially when charged molecules are analysed.
as §1, §2

[4] = biological target: T1, human serum albumin (HSA) (Homo sapiens, UniProt P02768); experiment: HSA-HPAC assay (plasma protein binding); format: in vitro ADME; conditions: Chiralpak-HSA, pH 7.4, 25 °C; spread is RSD in %
T1 construct: purchased ChromTech (Cedex, France) Chiralpak-HSA
T1 sequence (P02768 25-609): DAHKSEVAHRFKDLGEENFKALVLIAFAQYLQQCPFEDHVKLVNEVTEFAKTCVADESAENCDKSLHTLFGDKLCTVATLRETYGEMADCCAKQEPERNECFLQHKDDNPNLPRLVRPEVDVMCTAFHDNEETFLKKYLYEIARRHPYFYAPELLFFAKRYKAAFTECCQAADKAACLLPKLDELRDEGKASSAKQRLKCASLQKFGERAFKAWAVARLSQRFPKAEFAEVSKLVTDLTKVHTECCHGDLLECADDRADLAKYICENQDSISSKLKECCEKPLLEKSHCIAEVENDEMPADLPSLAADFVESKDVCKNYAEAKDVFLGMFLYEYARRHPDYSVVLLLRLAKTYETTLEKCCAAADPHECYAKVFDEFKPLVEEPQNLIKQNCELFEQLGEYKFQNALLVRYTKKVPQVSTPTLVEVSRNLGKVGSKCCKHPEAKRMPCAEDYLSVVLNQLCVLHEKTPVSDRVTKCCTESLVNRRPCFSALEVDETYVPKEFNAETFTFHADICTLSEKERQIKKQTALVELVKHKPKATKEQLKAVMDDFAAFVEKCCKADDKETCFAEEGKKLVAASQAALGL
Excerpt: (§3) The gradient retention times obtained by HSA-HPAC and AGP-HPAC assays were standardized using a calibration set of compounds with known percentage of plasma protein binding data and procedure described in our previously published study. […] This verification assured that the protein affinity indices obtained by HPAC assays depict not only unspecific generally lipophilicity-driven interactions, but also highly specific recognition forces responsible of enantioselectivity.
as §1
(§4) The binding of biologically active compounds to the plasma proteins was investigated using affinity chromatographic columns by ChromTech (Cedex, France) containing immobilized human serum albumin (HSA) (Chiralpak-HSA, length 50 mm, i.d. 4.6 mm, particle size 5 µm) and α1-acid glycoprotein (AGP) (Chiralpak-AGP, length 50 mm, i.d. 4.6 mm, particle size 5 µm) and Agilent HPLC 1100 instrument. The 20 mM potassium phosphate buffer with the pH adjusted to 7.4 and iso-propanol were used as mobile phase components A and B. Retention data were collected at 25.0 ± 0.1 °C using gradient program as follows: 0 min/0% B, 6 min/30% B, 15 min/30% B and 20 min/0% B. Injection volume was set at 10 µL and the measurements were carried out at 25.0 ± 0.1 °C with flow rate of 1.5 mL/min. The absorbance of the analytes during a chromatographic run was collected in the spectral range 200–400 nm, and the detection wavelength for each analyte was the one providing the maximum peak height.

[5] = test system: α1-acid glycoprotein (AGP); experiment: AGP-HPAC assay (plasma protein binding); format: in vitro ADME; conditions: Chiralpak-AGP, pH 7.4, 25 °C; spread is RSD in %
Excerpt: as §3, §1, §4

Row | Compound | RM0 (TLC hydrophobicity index, intercept of linear equation) [1] | logk0 (HPLC hydrophobicity index, intercept of linear equation) [2] | logk0 IAM (HPLC lipophilicity index, intercept of linear equation) [3] | HSA Binding ± RSD (%) (n = 3) [4] | AGP Binding ± RSD (%) (n = 3) [5] | difference in RM0 values versus andrographolide ([1]; compared to andrographolide) | difference in logk0 values versus andrographolide ([2]; compared to andrographolide) | difference in logk0 IAM values versus andrographolide ([3]; compared to andrographolide)
1 | C=C1CC[C@@H]2[C@](C)(CO)[C@H](O)CC[C@@]2(C)[C@@H]1C/C=C1/C(=O)OC[C@H]1O [Andrographolide, andrographolide] | y = −0.0302 x + 2.0908 | y = −0.0271 x + 1.9065 | y = −0.0464 x + 2.2763 | 80.07 ± 0.74% | 37.13 ± 1.11% |  |  | 
2 | O=C(/C=C/C=C/c1ccc2c(c1)OCO2)N1CCCCC1 [Piperine, piperine] | y = −0.0526 x + 4.4044 | y = −0.0394 x + 3.4218 | y = −0.0512 x + 3.2026 | 95.48 ± 0.41% | 71.98 ± 1.33% |  |  | 
3 | C=C1CC[C@@H]2[C@](C)(CO[C@@H]3O[C@H](CO)[C@@H](O)[C@H](O)[C@H]3O)CCC[C@@]2(C)[C@@H]1CCC1=CCOC1=O [Neoandrographolide, neoandrographolide] | y = −0.0334 x + 2.1672 | y = −0.0359 x + 2.8595 | y = −0.0620 x + 3.4572 | 87.71 ± 0.41% | 64.95 ± 0.41% | 0.08 units | 0.95 units | 1.18 units
4 | COc1cc(/C=C/C(=O)CC(=O)/C=C/c2ccc(O)cc2)ccc1O [Demetoxycurcumin, demetoxycurcumin] | y = −0.0504 x + 4.1781 | y = −0.0448 x + 3.4349 | y = −0.0555 x + 4.4229 | 97.97 ± 0.35% | 82.92 ± 1.15% |  |  | 
5 | O=C(C=Cc1ccc(O)cc1)CC(=O)C=Cc1ccc(O)cc1 [Bisdemetoxycurcumin, bisdemetoxycurcumin] | y = −0.0503 x + 4.1751 | y = −0.0447 x + 3.4174 | y = −0.0568 x + 4.6386 | 98.37 ± 0.10% | 83.14 ± 1.15% |  |  | 

Reference: article PMC9413514, “Accessing Lipophilicity and Biomimetic Chromatography Profile of Biologically Active Ingredients of Botanicals Used in the Treatment of Inflammatory Bowel Disease” (Pharmaceuticals, 2022)
